Where “and” joins values, the source holds several entries; their conditions need not be identical. Equal entries are not always repeated.
Experiments:
[1] = target: T1, human PD1-PDL1 interaction (Homo sapiens, UniProt Q9NZQ7); conditions: Table S1; ref BMS Patent 1: WO2015034820A1; cited from earlier work
T1 construct: purchased Perkin Elmer

[2] = target: T1, human PD1-PDL1 interaction; experiment: HTRF human PD1-PDL1 binding assay; conditions: for IC50: dose–response 0–100 µM
Text: The homogeneous time-resolved fluorescence (HTRF) binding assay was used to test these top 20 molecules for their potential blockade of human PD1-PDL1 interaction. We have previously established the utility of the HTRF assay over similar homogenous assay like AlphaLISA, with the latter proving to be more promiscuous in identifying potential false positives against PD1-PDL1 target.
The potential activity of our virtual hits in inhibiting PD1-PDL1 interaction was investigated using the homogeneous time-resolved fluorescence (HTRF) binding assay from Perkin Elmer. The assay was carried out according to the manufacturer’s instructions using the HTRF protocol in BioTek Synergy Neo^TM microplate reader. […] The assay mixture with only PDL1 protein, but not PD1 protein served as a negative control denoting 0% PD1-PDL1 interaction. […] The dose–response data were analyzed using GraphPad Prism to determine IC50 values using nonlinear regression variable slope models.

protein kinase D (PKD) = target: protein kinase D (PKD); parameters: method as in PMID 20497126; conditions: VEGF-treated endothelial cells; read-out: IC50 against all three PKD isoforms; cited from earlier work
[3] = tested on: ceramide synthase 1 (CerS1); conditions: mice fed with high-fat diet; cited from earlier work
PD1-PDL1 interaction = tested on: PD1-PDL1 interaction; parameters: method as in PMID 34117723; conditions: read-out: IC50, PD1-PDL1 inhibitor; cited from earlier work
[4] = 25 µM single-dose test concentration

T1 sequence (Q9NZQ7 19-238 limits assumed): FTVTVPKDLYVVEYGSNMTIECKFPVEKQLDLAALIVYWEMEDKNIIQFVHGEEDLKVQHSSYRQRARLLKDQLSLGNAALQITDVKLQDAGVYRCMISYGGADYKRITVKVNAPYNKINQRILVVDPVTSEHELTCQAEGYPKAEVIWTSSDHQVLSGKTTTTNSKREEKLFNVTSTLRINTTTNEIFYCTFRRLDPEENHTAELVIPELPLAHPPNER

Question: With `COc1cc(OCc2cccc(-c3ccccc3)c2C)cc(OC)c1CN1CCCC[C@H]1C(=O)O` [Compound 1--1] as the compound, how does the “Activity (classification used for ML modeling)” value [1] read?
Answer: ACTIVE

Question: For `CCOc1ccc2cc(-c3cc(-c4cccc(C(=O)NCCN(C)C)c4)cnc3N)ccc2c1` [Compound 1], which “% PD1-PDL1 Inhibition” value [2, 4] is on record?
Answer: 50.9 ± 1.3%

Question: And the IC50 [2]?
Answer: ~22 µM and ~22.4 µM

Question: What about the IC50 ([2]; listed as CRT5) of the same compound?
Answer: 22.4 µM

Question: What about the IC50 (protein kinase D (PKD)) of the same compound?
Answer: 0.001 to 0.002 µM

Question: For `C[C@@](N)(CO)CCc1ccc(OCc2ccc(Cl)c(Cl)c2)cc1` [Compound 2], which “% PD1-PDL1 Inhibition” value [2, 4] is on record?
Answer: 41.4 ± 0.9%

Question: What about the IC50 [2] of the same compound?
Answer: ~33.6 µM

Question: And the IC50 ([2]; listed as P053)?
Answer: 33.6 µM

Question: And the “fatty acid oxidation in skeletal muscles” value [3]?
Answer: increased fatty acid oxidation

Question: Which inhibition at 25 µM [2, 4] does the source give for `Cc1c(COc2ccc(CN3CCCCC3C(=O)O)cc2Br)cccc1-c1ccccc1` (centres unmarked) [Compound 18] here?
Answer: -4.4 ± 1.2%

Question: For `Cc1cc(/C=C/c2ccc3cc(N(C)C)ccc3[n+]2C)c(C)n1-c1ccccc1` [Pyrvinium], which IC50 (PD1-PDL1 interaction) is on record?
Answer: ~29.7 µM
